Patent publication US7838539B2, “Nicotine receptor agonists in stem cell and progenitor cell recruitment” (priority 1999, dated 2010)
Read-outs that look alike come from different tables or passages of the source.

Columns and labels:
[1] = system: fibrovascular growth into the disc (index of angiogenesis); test: Disc angiogenesis system (DAS); format: in vivo, C57BL/6J mice; settings: for effect on nicotine-induced fibrovascular growth: oral indomethacin 20 mcg/ml or LNNA 6 mg/ml; for angiogenesis in comparison to vehicle: agent in disc pellet: bFGF 20 mcg, Del-1 0.2 M, nicotine 10^-6 M
Source text: To study whether nicotine induces angiogenesis in vivo, we employed the disc angiogenesis system (DAS) (Kowalski et al. (1992) Exp Mol Pathol 56(1):1-19; Fajardo et al. (1998) Lab Invest 58:718-7244).
Preparation of the disc The DAS consisted of a disc (11 mm in diameter and 1 mm thickness) made of a polyvinyl alcohol sponge (Kanebo PVA, Rippey Co., Santa Clara, Calif.). Both sides were covered with nitrocellulose cell-impermeable filters (Millipore filters, 0.45 μm in pore diameter, Millipore, SF, Calif.) of the same diameter as the sponge disc, fixed to the sponge using Millipore glue #1 (xx70000.00, Millipore). As a result, cells (and thus vessels) could penetrate or exit only through the rim of the disc (Kowalski et al. (1992) Exp Mol Pathol 56(1):1-19; Fajardo et al. (1998) Lab Invest 58:718-7244).
In order to study the local effect of nicotine on angiogenesis, nicotine was placed in a pellet which was added directly to the disc. Briefly, a 1.5-mm core (pellet) was cut from the disc center. Both the pellets and discs were sterilized prior to assembly in a laminar flow hood. The pellet was loaded with up to 20 mcl (μl) of the nicotine solution and subsequently air-dried. We placed in the disc pellets with either vehicle (PBS, Sigma, Chemical Co., St Louis, Mo., n=5) or nicotine (10^-6 M, Aldrich Chemical Company, Milwaukee, Wis., n=5) to study the effects of locally administered nicotine. For comparison, in some cases basic fibroblast growth factor (bFGF; 20 mcg) or Del-1 protein (0.2 M) was added to the pellet, rather than nicotine. Both bFGF and Del-1 are known to induce angiogenesis. The pellet was then coated with ethylene-vinyl acetate co-polymer (Elvax, Dupont, Chemcentral Corp., Chicago, Ill.) which would permit slow release of the nicotine from the pellet into the disc. The pellet was then re-inserted into the disc before sealing the disc with the millipore filters.
To study the systemic effects of nicotine, in some cases the animals were administered nicotine in their drinking water (see below).
Implantation of the disc The mice were anesthetized with 4% chloralhydrate [intraperitoneal administration (i.p.), 0.1 cc/10 g body weight]. The flanks and posterior surface of the thorax were shaved and cleaned with saturated 70% isopropyl alcohol. A 2-cm incision was made in the skin of the flank contra-lateral to the implantation site. Blunt dissection through the subcutaneous tissue produced a channel into which the saline moistened disc was inserted. The skin was closed with 5.0 silk suture (Kowalski et al. (1992) Exp Mol Pathol 56(1):1-19; Fajardo et al. (1998) Lab Invest 58:718-7244).
Disc removal and preparation Two weeks after disc implantation, the mice were sacrificed with an overdose of 4% chloral hydrate (i.p.) and cervical dislocation. A careful incision was made next to the skin overlying the implanted disc, and the disc was gently removed from the implantation site. Attached tissue was carefully detached from the disc. After removing the disc, one filter was separated from the disc. Discs were then fixed in 10% formalin and embedded flat in paraffin. Subsequently, 5 μm sections were made in a plane through the center of the disc and parallel to the disc surface.
Quantitation of results The disc sections were stained with H&E for light microscopy and histomorphometric measurement of radial growth, and stained with toluidine blue for quantitative determination of total area of fibrovascular growth. Using a video microscope and a computer assisted digital image analysis system (NIH Image 1.59b9), the entire area of fibrovascular growth in the toluidine blue stained disc was calculated and expressed in mm^2. As described in a previous study, total fibrovascular growth area is directly proportional to the total area of the disc occupied by blood vessels (Kowalski et al. (1992) Exp Mol Pathol 56(1):1-19; Fajardo et al. (1998) Lab Invest 58:718-7244).

[2] = system: capillary density in hindlimb muscle
Method: Mice were anesthetized with 4% chloral hydrate [intraperitoneal administration (i.p.), 0.1 cc/10 g body weight). The medial surface of both hind limbs were shaved and then cleaned with betadine solution. A 1.5-cm longitudinal incision was performed, extending from the knee to the inguinal ligament. Through this incision, the superficial femoral artery was dissected free along its length. After the distal ends of both the external iliac and superficial femoral arteries were ligated with 7.0 (Ethicon), complete excision of the femoral artery was performed. An additional set of mice underwent sham operation. The incisions were then closed with discontinuous stitches of 5.0 silk suture (Ethicon). Ampicillin (1 mg/10 gm body weight) intraperitoneal injection was administered after surgical procedure.
Tissue Preparation. Three weeks after surgery, mice were euthanized with an overdose of 4% chloral hydrate (i.p) and cervical dislocation, and the adductor and semimembranous muscles were collected for capillary density assessment. Briefly, a longitudinal incision in the medial thigh was made to expose the entire hindlimb muscle. The adductor and semimembranous muscles were removed and immediately frozen in OCT. Subsequently, sections 5 μm were taken from the mid-region of each muscle in a transverse orientation. The sections were air dried and fixed in acetone.
Capillary Densitometry. Immunohistochemistry was performed using an alkaline phosphatase assay to identify the endothelial cells. An eosin counterstain was used to differentiate myocytes. Capillaries and myocytes were identified and counted using light microscopy (20×). For each section, four different fields were selected and the total number of capillaries and myocytes per field determined. These values were averaged to provide a determination of capillary density for each experimental limb. To ensure that value for capillary density was not overestimated due to muscle atrophy, or underestimated due to interstitial edema, capillary density was expressed as a ratio of capillaries to myocytes present in the same field.
Daily intramuscular injections of nicotine solution or vehicle were administered (50 μl) for a period of three weeks.

hematopoietic stem cells = settings: 100 μg/ml in drinking water, 6 weeks
Method: (§1) Mice (C57B16j) were given solution containing vehicle (0.4% saccharine in distilled water) or nicotine (100 μg/ml) ad libitum in their drinking water. After 6 weeks, peripheral blood, bone marrow and spleen were harvested. Cell counts were obtained in the blood, spleen and bone marrow, and bone marrow cells were isolated for fluorescent activated cell sorting (FACS). To detect hematopoietic stem cells (HSCs), fluorescently labeled antibodies directed against the following antigens were used: Lineage antigens (CD3,4,5, and 8; B220; Gr1, Mac1 and Ter119), cKit, Sca 1, and Flk2. HSCs were conventionally defined as Lin−, cKit+, Sca1+, and […]. All cells were stained with PI (propidium iodide) to separate live from dead cells.

in vivo = settings: C57B16j, mouse, plasma, oral, 100 μg/ml in drinking water
Method: as §1

[3] = system: endothelial progenitor cells (EPCs); settings: nicotine 0.1 g/L drinking water, 3 weeks after ischemia
Source text: In order to further examine the role of nicotine in induction of angiogenesis, the recruitment of endothelial progenitor cells was studied.
Parabiotic mouse pairs were created to investigate the mobilization and incorporation of precursors to vessel formation in normal and ischemic conditions using a hind limb ischemia model of angiogenesis (as described above), and the effect of nicotine. The parabiotic partners were selected so that they shared all major histocompatibility antigens, and were therefore free of immunological barriers to cell migration and angiogenesis. Assaying for genetic markers unique to one animal of the pair (e.g., the Y chromosome where the pair is made up of a female mouse and a male mouse) provides for unambiguous cell tracking between the mice. The model is further optimized by the use of a second genetic marker to differential the individuals (e.g., a transgene present in one partner and not the other), thus increasing the sensitivity and the accuracy of the identification of the origin of single cells. […]

[4] = highest intramuscular dose (3.2 μg/kg daily, three weeks)

## NC(=NCCC[C@H](N)C(=O)O)N[N+](=O)[O-] [LNNA, L, nitro-arginine]
[1]; local nicotine in disc
  effect on nicotine-induced fibrovascular growth: blocked
[1]; systemic nicotine
  effect on nicotine-induced fibrovascular growth: blocked

## COc1ccc2c(c1)c(CC(=O)O)c(C)n2C(=O)c1ccc(Cl)cc1 [indomethacin]
[1]; local nicotine in disc
  effect on nicotine-induced fibrovascular growth: blocked
[1]; systemic nicotine
  effect on nicotine-induced fibrovascular growth: blocked

## CN1CCC[C@H]1c1cccnc1 [nicotine, S-3-(1-methyl-2-pyrrolidinyl)pyridine]
[1]
  angiogenesis in comparison to vehicle: increased angiogenesis to the same degree
[1]; systemic nicotine in drinking water
  angiogenesis with systemic nicotine compared with locally administered bFGF and Del-1: enhanced angiogenesis to a much greater degree
[1]; systemic versus local nicotine
  angiogenic effect of systemic compared with local nicotine administration: greater than local nicotine administration
[2]; 0.03 μg/kg intramuscular daily for three weeks, vehicle control 0.35
  capillary density in the ischemic limb: 0.67 capillaries/myocyte
[2]; higher intramuscular doses
  angiogenic effect, dose dependence: less angiogenesis is observed
[2]; [4]
  angiogenesis in the ischemic limb: angiogenesis was not increased
  toxicity at injection site: some toxicity was observed, with evidence of interstitial edema and myocyte necrosis
[2]; intermediate intramuscular doses
  angiogenic effect, dose dependence: greatest effect
[2]; intramuscular nicotine in the ischemic limb, untreated non-ischemic limb
  angiogenic effect in non-ischemic hindlimbs: no angiogenic effect was detected
Hematopoietic stem cells
  appearance of mice at the time of sacrifice: appeared healthy
  cellularity of the bone marrow: increased
  cellularity of the spleen: increased
  peripheral white blood cell count: elevated
Hematopoietic stem cells; FACS
  hematopoietic stem cells (kit/sca+ cells) in bone marrow: significant increase
  long term HSCs (self-renewing cells) in bone marrow: equal increases
  short term HSCs in bone marrow: an increase
In vivo
  concentration at 6 weeks: 87 ng/mL
[3]
  number of vessels: significant increase
[3]; saline group 1.6%, P<0.001
  percentage of vessels that incorporated EPC: 7.3%

## bFGF: basic fibroblast growth factor, known to induce angiogenesis; comparison agent in the disc pellet
[1]
  angiogenesis in comparison to vehicle: increased angiogenesis to the same degree

B1: Del1: Del-1 protein, known to induce angiogenesis; comparison agent in the disc pellet (protein, UniProt O43854 24-480, looked up)
EGF-like repeat and discoidin …: DICDPNPCENGGICLPGLADGSFSCECPDGFTDPNCSSVVEVASDEEEPTSAGPCTPNPCHNGGTCEISEAYRGDTFIGYVCKCPRGFNGIHCQHNINECEVEPCKNGGICTDLVANYSCECPGEFMGRNCQYKCSGPLGIEGGIISNQQITASSTHRALFGLQKWYPYYARLNKKGLINAWTAAENDRWPWIQINLQRKMRVTGVITQGAKRIGSPEYIKSYKIAYSNDGKTWAMYKVKGTNEDMVFRGNIDNNTPYANSFTPPIKAQYVRLYPQVCRRHCTLRMELLGCELSGCSEPLGMKSGHIQDYQITASSIFRTLNMDMFTWEPRKARLDKQGKVNAWTSGHNDQSQWLQVDLLVPTKVTGIITQGAKDFGHVQFVGSYKLAYSNDGEHWTVYQDEKQRKDKVFQGNFDNDTHRKNVIDPPIYARHIRILPWSWYGRITLRSELLGCTEEE
[1]
  angiogenesis in comparison to vehicle: increased angiogenesis to the same degree
